From ChEMBL document CHEMBL1125198, “Synthesis, ligand binding, QSAR, and CoMFA study of 3 beta-(p-substituted phenyl)tropane-2 beta-carboxylic acid methyl esters” (J Med Chem, 1991)

target: Sodium-dependent dopamine transporter (Rattus norvegicus, UniProt P23977); assay: Affinity against cocaine binding site of dopamine transporter in rat striatum using [3H]2b as radioligand.; type: tissue-based
Sequence (P23977 whole entry): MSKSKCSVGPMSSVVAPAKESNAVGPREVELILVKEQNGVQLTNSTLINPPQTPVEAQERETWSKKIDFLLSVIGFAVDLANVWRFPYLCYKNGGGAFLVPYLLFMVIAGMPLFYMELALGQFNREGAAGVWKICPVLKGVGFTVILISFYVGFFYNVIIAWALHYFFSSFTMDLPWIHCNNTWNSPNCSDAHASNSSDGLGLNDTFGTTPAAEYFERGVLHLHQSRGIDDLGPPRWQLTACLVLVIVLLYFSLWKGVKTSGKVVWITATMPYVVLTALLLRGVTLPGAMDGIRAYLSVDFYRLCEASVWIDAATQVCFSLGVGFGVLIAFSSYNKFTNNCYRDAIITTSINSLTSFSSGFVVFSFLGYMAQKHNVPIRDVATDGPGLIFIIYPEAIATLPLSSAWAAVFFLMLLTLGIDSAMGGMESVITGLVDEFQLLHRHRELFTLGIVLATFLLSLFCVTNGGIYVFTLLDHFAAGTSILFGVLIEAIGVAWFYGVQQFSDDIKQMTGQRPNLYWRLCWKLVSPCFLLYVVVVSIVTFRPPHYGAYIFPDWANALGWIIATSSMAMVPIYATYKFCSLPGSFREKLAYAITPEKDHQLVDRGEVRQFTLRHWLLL

`COC(=O)C1C2CC[C@H](C[C@@H]1c1ccc(I)cc1)N2C` (some centres not stated) and `COC(=O)C1C2CC[C@H](C[C@H]1c1ccc(C)cc1)N2C` (some centres not stated) are within 1.5-fold of each other in IC50: 1.26 nM for the first, 1.71 nM for the second.

Compared with `CCOC(=O)Nc1ccc([C@H]2C[C@H]3CCC([C@H]2C(=O)OC)N3C)cc1`, `CCC(=O)Nc1ccc([C@H]2C[C@H]3CCC([C@H]2C(=O)OC)N3C)cc1` is 4.6-fold lower in IC50: 316 nM for the first, 68 nM for the second.

`COC(=O)[C@@H]1C2CC[C@H](C[C@@H]1c1ccccc1)N2C` and `COC(=O)[C@@H]1C2CC[C@H](C[C@@H]1c1ccc(N)cc1)N2C` are within 1.5-fold of each other in IC50: 23 nM for the first, 24.8 nM for the second.

Compared with `COC(=O)[C@@H]1C2CC[C@H](C[C@@H]1c1ccc(C(F)(F)F)cc1)N2C`, `COC(=O)C1C2CC[C@H](C[C@H]1c1ccc(Br)cc1)N2C` (some centres not stated) is 7.2-fold lower in IC50: 13.1 nM for the first, 1.81 nM for the second.

First: COC(=O)[C@@H]1C2CC[C@H](C[C@@H]1c1ccc(N=[N+]=[N-])cc1)N2C
Second: COC(=O)C1C2CC[C@H](C[C@@H]1c1ccc(Cl)cc1)N2C (some centres not stated)
The IC50 of the first is 1.8-fold higher: 2.12 nM for the first, 1.17 nM for the second. The second is the more potent here.

First: COC(=O)[C@@H]1C2CC[C@H](C[C@@H]1c1cccs1)N2C
Second: COC(=O)[C@@H]1C2CC[C@H](C[C@@H]1c1ccc(NC(C)=O)cc1)N2C
The IC50 of the first is 4-fold higher: 257 nM for the first, 64.2 nM for the second.
